The text below walks through data of ChEMBL document CHEMBL3784966, “Approaching the active conformation of 1,3-diaminopyrimidine based covalent inhibitors of Bruton's tyrosine kinase for treatment of Rheumatoid arthritis” (Bioorg Med Chem Lett, 2016).

pIC50: −log10 of the molar value.

Data set [1] concerns the target Tyrosine-protein kinase BTK (Homo sapiens, UniProt Q06187). The data set is described as follows: Inhibition of BTK (unknown origin).
Data set [2] in a line: Antiproliferative activity against B cells (unknown origin). The note with it: B-cell. The class given is functional, cell-based.
Data set [3] in a line: Plasma clearance in Sprague-Dawley rat at 2 mg/kg, iv. The class given is ADME, organism-based.
Data set [4] is described as follows: Half life in Sprague-Dawley rat at 2 mg/kg, po. Format: ADME, organism-based. The following applies: in vivo.
Data set [5] can be described thus: Oral bioavailability in Sprague-Dawley rat at 2 mg/kg. The following applies: in vivo. The class given is ADME, organism-based.
Data set [6] can be described thus: Cmax in Sprague-Dawley rat at 2 mg/kg, po. Format: ADME, organism-based. Set-up: dose 2 mg/kg, route oral. The following applies: in vivo.
Data set [7] in a line: AUC(0 to t) in Sprague-Dawley rat at 2 mg/kg, po. The class given is ADME, organism-based. The note with it: in vivo.
Data set [8] in a line: Metabolic stability in human plasma assessed as remaining compound at 1 uM after 4 hrs by LC-MS/MS analysis. The following applies: read-out: Stability. The class given is ADME, cell-free.
Data set [9] is described as follows: Metabolic stability in Beagle dog plasma assessed as remaining compound at 1 uM after 4 hrs by LC-MS/MS analysis. The class given is ADME, cell-free, Canis lupus familiaris. The note with it: read-out: Stability.
Data set [10] is described as follows: Metabolic stability in Sprague-Dawley rat plasma assessed as remaining compound at 1 uM after 4 hrs by LC-MS/MS analysis. The class given is ADME, cell-free. The note with it: read-out: Stability.

Sequence of Tyrosine-protein kinase BTK (Q06187 whole entry): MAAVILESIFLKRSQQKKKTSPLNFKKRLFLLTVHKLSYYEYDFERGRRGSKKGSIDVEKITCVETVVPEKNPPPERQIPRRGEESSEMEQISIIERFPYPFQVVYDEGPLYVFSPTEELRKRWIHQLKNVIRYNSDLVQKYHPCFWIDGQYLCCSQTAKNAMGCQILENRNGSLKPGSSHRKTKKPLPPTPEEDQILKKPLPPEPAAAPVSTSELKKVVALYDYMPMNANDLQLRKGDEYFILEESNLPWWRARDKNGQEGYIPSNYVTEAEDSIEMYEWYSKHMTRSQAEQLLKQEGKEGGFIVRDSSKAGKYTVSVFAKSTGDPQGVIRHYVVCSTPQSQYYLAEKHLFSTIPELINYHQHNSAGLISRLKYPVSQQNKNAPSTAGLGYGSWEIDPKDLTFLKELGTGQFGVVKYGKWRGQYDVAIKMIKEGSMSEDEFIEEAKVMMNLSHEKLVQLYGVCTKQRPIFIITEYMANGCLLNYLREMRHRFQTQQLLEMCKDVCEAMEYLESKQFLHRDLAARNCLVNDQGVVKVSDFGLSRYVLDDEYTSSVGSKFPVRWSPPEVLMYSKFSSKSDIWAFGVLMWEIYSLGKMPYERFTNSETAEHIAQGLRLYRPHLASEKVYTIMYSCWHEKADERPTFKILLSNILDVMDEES

Broadly, the pIC50 is the IC50 on a negative log10 scale, so that one unit is a factor of ten. A lower pIC50 goes with a large IC50. The clearance is a measure of how efficiently the substance is removed, as volume per time. As a reminder, the half-life is the time in which the quantity being followed falls by half. A lower half-life goes with rapid decline. As a reminder, the bioavailability is dose-corrected exposure relative to a reference, in per cent. In general, Cmax refers to the maximum level reached in the sampled fluid or tissue. As a reminder, the AUC(0-t) is exposure summed from dosing to a finite time, without extrapolation to infinity. As to `C=CC(=O)Nc1cccc(-n2c(=O)n(C)c3cnc(Nc4ccc(Oc5ccnc(C(=O)NC)c5)cc4)nc32)c1`, the results for the negative-log IC50 (pIC50) in [1] and in data set [2] were 7.89 and 7.86, respectively. The compound also showed a clearance in data set [3] of 30 mL/min/kg. Besides, the half-life in data set [4] is 2.4 h. This compound registered a bioavailability in data set [5] of 9%. Besides, the concentration in data set [6] peaked (Cmax) at 107 ng/mL. For the same compound, the exposure AUC(0-t) in data set [7] worked out at 100 ng·h/mL.

In turn, `C=CC(=O)Nc1cccc(-n2c(=O)n(C3CCOCC3)c3cnc(Nc4ccc(OC)nc4)nc32)c1` gave a negative-log IC50 (pIC50) in data set [1] of 6.50.

Regarding `C=CC(=O)Nc1cccc(Nc2nc(Nc3ccc(OCCOC)cc3)ncc2S(C)(=O)=O)c1`, the pIC50 in data set [1] was 7.51.

Regarding `C=CC(=O)Nc1cccc(-n2c(=O)n(C)c3cnc(Nc4ccc(OCCOC)cc4)nc32)c1`, the pIC50 in data set [1] was 8.39; in data set [2], 8.16. Moreover, the remaining at 4 h, 1 µM in data set [8] was determined as 42.2%; in [9] it was 16.2%; in data set [10] it was 27.5%. In addition, in [3], the clearance was 253 mL/min/kg. In [4], this compound gave a half-life of 1.4 h. The compound also gave a bioavailability in [5] of 20%. Further, the concentration in data set [6] peaked (Cmax) at 41 ng/mL. This compound also showed an exposure AUC(0-t) in data set [7] of 27 ng·h/mL.

For `C=CC(=O)Nc1cccc(-n2c(=O)n(CC3CC3)c3cnc(Nc4ccc(N5CCOCC5)cc4)nc32)c1`, the negative logarithm of the IC50 (pIC50) in data set [1] is 7.51; in [2] it was 7.15. Also, the remaining at 4 h, 1 µM in data set [8] stood at 40.8%; in data set [9], 93.4%; in data set [10], 80.5%.

As for `C=CC(=O)Nc1cccc(-n2c(=O)n(CCOC)c3cnc(Nc4ccc(OC)nc4)nc32)c1`, in data set [1], the negative logarithm of the IC50 (pIC50) was 6.58.

Consider `C=CC(=O)Nc1cccc(Nc2nc(Nc3ccc(OCCOC)cc3)ncc2SC)c1`, for which the results for the pIC50 in data set [1] and in [2] were 8.18 and 7.51, respectively.

Take `C=CC(=O)Nc1cccc(Nc2nc(Nc3ccc(N4CCOCC4)cc3)ncc2SC)c1`: the pIC50 in data set [1] is 8.97; in data set [2], 7.19.

The compound `C=CC(=O)Nc1cccc(-n2c(=O)n(CC3CC3)c3cnc(Nc4ccc(OC)nc4)nc32)c1` gave a pIC50 in data set [1] of 6.65.

For the compound `C=CC(=O)Nc1cccc(-n2c(=O)n(CC3CC3)c3cnc(Nc4ccc(N(C)C)nc4)nc32)c1`, the pIC50 in data set [1] is 7.51; in [2] it was 6.09.

With `C=CC(=O)Nc1cccc(Nc2nc(Nc3ccc(N4CCOCC4)cc3)ncc2[S+](C)[O-])c1` (racemic), the pIC50 in data set [1] was 9.04; in data set [2], 8.45.

As to `C=CC(=O)Nc1cccc(Nc2nc(Nc3ccc(OCCOC)cc3)ncc2[S+](C)[O-])c1` (racemic), the negative logarithm of the IC50 (pIC50) in data set [1] is 8.42; in data set [2], 8.23. In addition, the remaining at 4 h, 1 µM in data set [8] worked out at 86.7%; in data set [9] it was 94.3%; in data set [10], 90.7%. Also, the clearance in [3] was 108 mL/min/kg. Also, the half-life in data set [4] is 1.3 h. Besides, the bioavailability in data set [5] came out at 23%. The same compound came in with a peak concentration (Cmax) in data set [6] of 55 ng/mL. Besides, the area under the curve AUC(0-t) in data set [7] worked out at 73 ng·h/mL.

Regarding `C=CC(=O)Nc1cccc(Nc2nc(Nc3ccc(N(C)C)nc3)ncc2[S+](C)[O-])c1` (racemic), the pIC50 in data set [1] was 8.83; in data set [2] it was 7.83.

With `C=CC(=O)Nc1cccc(Nc2nc(Nc3ccc(Oc4ccnc(C(=O)NC)c4)cc3)ncc2[S+](C)[O-])c1` (racemic), the pIC50 is 8.25 in data set [1] and 7.71 in [2].

In [2], `C=CC(=O)Nc1cccc(Nc2nc(Nc3ccc(OCCOC)cc3)ncc2F)c1` [SPEBRUTINIB] showed a pIC50 of 8.48.
